According to ChEMBL document CHEMBL5291721, “A preclinical secondary pharmacology resource illuminates target-adverse drug reaction associations of marketed drugs” (Nat Commun, 2023):

Columns and labels:
[1] = target: T1, Alpha-1A adrenergic receptor (Homo sapiens, UniProt P35348)
T1 sequence (P35348 whole entry): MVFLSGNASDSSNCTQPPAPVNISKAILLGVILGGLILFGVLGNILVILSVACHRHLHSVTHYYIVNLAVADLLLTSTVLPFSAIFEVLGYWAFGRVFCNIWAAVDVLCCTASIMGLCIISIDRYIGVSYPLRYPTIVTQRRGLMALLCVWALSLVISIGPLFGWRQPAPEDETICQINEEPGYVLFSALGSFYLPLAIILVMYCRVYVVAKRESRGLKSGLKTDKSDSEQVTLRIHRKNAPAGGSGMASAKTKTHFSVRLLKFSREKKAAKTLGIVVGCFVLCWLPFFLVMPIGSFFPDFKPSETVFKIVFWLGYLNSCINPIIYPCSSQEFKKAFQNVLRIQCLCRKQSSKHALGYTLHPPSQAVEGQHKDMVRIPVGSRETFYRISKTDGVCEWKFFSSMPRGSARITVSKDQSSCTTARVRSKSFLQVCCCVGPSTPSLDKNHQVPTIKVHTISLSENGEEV

[2] = target: Beta-2 adrenergic receptor (Homo sapiens, UniProt P07550)
Chain of Beta-2 adrenergic receptor (P07550 whole entry): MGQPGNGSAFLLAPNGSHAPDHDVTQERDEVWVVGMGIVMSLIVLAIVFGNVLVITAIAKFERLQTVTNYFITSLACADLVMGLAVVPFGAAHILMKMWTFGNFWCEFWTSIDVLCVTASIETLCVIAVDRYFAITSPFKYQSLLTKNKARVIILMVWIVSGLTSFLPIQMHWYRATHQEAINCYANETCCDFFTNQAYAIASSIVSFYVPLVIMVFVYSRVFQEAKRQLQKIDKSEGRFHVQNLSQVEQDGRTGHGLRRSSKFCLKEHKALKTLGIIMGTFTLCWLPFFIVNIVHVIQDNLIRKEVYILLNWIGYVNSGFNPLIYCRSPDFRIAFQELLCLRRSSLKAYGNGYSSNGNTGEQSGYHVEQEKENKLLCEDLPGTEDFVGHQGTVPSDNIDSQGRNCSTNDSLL

[3] = target: Gamma-aminobutyric acid receptor subunit alpha-1 (Rattus norvegicus, UniProt P62813); assay type: functional
Chain of Gamma-aminobutyric acid receptor subunit alpha-1 (P62813 whole entry): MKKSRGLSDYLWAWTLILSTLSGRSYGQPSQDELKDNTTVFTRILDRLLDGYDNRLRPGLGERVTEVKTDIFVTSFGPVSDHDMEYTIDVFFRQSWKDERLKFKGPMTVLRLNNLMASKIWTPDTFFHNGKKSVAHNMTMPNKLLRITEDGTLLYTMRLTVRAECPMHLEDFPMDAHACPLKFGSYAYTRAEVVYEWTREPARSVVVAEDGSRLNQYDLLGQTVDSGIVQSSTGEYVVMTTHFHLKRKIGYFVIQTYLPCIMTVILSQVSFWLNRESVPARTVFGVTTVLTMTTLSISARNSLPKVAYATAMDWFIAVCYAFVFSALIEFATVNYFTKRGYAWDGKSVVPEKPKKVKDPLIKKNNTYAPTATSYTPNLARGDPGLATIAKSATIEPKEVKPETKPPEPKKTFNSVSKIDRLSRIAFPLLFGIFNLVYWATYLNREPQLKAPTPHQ

[4] = target: T1, Alpha-1A adrenergic receptor; assay type: functional, cell-based
[5] = target: T2, 5-hydroxytryptamine receptor 1A (Homo sapiens, UniProt P08908); assay type: functional, cell-based
T2 sequence (P08908 whole entry): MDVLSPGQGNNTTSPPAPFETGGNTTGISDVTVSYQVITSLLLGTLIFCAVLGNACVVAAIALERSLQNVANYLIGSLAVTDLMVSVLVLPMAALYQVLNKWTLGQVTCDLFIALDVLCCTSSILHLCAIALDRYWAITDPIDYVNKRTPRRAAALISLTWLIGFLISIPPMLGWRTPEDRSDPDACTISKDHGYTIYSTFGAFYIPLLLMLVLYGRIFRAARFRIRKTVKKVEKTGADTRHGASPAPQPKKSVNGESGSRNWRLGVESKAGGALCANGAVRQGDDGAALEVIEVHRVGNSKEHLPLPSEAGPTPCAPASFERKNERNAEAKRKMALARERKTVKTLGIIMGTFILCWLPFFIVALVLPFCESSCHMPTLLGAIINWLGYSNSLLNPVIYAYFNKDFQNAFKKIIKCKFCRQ

[6] = target: 5-hydroxytryptamine receptor 2B (Homo sapiens, UniProt P41595); assay type: functional, cell-based
Chain of 5-hydroxytryptamine receptor 2B (P41595 whole entry): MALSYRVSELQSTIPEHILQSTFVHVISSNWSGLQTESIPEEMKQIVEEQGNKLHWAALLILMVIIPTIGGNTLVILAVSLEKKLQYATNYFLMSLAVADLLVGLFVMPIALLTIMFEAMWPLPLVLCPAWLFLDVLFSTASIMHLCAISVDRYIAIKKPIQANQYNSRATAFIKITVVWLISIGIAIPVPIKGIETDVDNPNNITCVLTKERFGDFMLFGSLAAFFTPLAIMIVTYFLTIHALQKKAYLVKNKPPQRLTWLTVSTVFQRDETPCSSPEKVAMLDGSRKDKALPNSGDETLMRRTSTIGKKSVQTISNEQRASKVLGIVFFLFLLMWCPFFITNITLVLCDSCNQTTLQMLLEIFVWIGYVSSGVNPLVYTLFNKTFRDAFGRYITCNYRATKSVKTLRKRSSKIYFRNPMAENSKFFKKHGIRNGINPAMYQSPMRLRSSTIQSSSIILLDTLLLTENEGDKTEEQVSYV

Progesterone receptor = target: T3, Progesterone receptor (Homo sapiens, UniProt P06401); assay type: functional
T3 sequence (P06401 whole entry): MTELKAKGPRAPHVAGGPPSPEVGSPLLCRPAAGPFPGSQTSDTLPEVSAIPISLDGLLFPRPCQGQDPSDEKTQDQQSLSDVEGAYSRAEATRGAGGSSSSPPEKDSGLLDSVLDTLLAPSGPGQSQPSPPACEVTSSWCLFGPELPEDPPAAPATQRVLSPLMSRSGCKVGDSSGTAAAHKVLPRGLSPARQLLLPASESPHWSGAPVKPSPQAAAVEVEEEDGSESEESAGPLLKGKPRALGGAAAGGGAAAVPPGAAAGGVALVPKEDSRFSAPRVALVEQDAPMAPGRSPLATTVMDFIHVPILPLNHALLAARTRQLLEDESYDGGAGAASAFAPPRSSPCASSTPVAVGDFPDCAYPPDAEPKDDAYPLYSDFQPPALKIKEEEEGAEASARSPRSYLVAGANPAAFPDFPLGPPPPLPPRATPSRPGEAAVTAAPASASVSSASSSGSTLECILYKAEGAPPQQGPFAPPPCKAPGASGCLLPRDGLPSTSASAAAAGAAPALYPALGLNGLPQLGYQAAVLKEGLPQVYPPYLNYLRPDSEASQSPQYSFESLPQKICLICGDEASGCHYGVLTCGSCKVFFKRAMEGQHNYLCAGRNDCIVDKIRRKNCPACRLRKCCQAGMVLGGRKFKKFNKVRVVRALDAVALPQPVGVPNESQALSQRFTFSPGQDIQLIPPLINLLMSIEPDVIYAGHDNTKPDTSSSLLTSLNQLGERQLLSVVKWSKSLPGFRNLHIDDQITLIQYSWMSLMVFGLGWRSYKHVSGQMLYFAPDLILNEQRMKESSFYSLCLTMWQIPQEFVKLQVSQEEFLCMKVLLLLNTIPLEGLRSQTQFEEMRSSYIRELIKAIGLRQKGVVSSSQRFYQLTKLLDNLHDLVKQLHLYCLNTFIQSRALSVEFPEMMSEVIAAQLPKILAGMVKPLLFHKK

Acetylcholinesterase = Acetylcholinesterase (Homo sapiens, UniProt P22303); assay type: functional
Chain of Acetylcholinesterase (P22303 whole entry): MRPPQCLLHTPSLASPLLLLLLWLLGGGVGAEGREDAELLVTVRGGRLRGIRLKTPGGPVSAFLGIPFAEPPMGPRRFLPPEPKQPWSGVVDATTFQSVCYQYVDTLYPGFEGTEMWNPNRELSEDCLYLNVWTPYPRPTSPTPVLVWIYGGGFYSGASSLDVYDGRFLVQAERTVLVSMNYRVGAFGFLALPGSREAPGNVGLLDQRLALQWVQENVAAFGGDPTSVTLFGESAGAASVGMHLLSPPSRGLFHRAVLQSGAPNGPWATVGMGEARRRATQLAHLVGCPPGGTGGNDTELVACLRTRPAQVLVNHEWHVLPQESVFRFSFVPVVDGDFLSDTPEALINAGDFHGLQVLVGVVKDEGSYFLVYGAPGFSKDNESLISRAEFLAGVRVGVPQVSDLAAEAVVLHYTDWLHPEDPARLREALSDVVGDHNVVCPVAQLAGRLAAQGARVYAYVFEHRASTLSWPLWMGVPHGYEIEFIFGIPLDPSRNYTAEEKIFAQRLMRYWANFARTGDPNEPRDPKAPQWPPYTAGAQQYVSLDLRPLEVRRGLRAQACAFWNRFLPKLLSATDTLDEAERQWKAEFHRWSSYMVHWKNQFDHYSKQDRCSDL

[7] = target: T2, 5-hydroxytryptamine receptor 1A
[8] = target: 3',5'-cyclic-AMP phosphodiesterase 4A (Homo sapiens, UniProt P27815); assay type: functional
Chain of 3',5'-cyclic-AMP phosphodiesterase 4A (P27815 whole entry): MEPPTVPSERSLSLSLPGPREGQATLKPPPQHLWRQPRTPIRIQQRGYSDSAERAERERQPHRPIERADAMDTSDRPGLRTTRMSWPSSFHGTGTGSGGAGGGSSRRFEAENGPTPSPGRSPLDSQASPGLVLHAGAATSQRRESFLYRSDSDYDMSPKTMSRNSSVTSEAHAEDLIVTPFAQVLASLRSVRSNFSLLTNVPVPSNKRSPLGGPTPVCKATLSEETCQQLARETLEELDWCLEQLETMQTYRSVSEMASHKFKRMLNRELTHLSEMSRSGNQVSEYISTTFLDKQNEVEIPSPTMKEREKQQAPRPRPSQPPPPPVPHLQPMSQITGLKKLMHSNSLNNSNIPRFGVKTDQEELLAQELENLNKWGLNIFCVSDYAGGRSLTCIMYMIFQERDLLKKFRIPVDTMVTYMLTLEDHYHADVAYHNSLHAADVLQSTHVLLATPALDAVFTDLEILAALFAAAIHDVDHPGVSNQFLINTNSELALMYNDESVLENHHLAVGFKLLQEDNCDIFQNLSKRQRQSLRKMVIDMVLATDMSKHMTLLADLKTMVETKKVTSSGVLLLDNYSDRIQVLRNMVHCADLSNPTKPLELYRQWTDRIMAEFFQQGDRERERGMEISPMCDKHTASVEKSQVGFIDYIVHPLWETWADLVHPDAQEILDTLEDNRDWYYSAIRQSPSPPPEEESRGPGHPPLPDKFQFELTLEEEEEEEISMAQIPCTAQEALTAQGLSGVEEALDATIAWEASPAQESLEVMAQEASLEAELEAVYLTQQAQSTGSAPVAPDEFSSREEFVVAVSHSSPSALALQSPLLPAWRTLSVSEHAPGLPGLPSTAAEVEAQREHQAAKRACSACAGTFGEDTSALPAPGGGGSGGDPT

[9] = target: T4, Prostaglandin G/H synthase 1 (Homo sapiens, UniProt P23219); assay type: functional
T4 sequence (P23219 whole entry): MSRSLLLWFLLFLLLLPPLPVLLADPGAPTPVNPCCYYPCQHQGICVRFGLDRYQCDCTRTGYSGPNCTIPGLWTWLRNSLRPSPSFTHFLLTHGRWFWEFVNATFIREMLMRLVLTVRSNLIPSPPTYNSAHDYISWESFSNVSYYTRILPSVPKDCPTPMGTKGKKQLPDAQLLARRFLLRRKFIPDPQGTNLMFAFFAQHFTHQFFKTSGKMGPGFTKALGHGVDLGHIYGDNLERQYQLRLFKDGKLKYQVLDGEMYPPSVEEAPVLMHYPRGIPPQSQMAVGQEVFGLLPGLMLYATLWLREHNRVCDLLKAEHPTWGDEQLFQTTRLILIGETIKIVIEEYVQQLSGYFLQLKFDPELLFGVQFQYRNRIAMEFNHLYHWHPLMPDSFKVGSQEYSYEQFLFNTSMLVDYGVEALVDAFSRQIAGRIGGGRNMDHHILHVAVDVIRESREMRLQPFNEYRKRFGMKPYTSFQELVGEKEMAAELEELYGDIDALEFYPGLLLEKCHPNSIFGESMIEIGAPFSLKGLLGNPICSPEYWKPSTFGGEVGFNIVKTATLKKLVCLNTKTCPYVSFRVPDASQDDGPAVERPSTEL

[10] = target: T4, Prostaglandin G/H synthase 1; assay type: functional; remark: listed apart in the source
[11] = target: T5, Muscarinic acetylcholine receptor M2 (Homo sapiens, UniProt P08172)
T5 sequence (P08172 whole entry): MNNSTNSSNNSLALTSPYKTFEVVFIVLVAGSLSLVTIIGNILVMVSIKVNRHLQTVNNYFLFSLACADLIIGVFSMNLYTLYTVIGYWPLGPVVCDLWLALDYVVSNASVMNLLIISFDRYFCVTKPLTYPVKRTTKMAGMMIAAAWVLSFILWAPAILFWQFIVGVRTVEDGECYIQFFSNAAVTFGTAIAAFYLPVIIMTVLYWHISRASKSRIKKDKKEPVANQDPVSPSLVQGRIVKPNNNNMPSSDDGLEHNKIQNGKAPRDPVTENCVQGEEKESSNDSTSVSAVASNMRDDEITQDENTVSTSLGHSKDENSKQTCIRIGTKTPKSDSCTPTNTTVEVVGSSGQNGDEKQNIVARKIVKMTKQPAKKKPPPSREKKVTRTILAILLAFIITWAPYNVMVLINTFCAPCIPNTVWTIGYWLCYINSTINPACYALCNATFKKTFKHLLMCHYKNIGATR
Further: assay procedure not described here.

| SMILES | AC50 [1] | AC50 [2] | AC50 [3] | AC50 [4] | AC50 [5] | AC50 [6] | AC50 (Progesterone receptor) | AC50 (Acetylcholinesterase) | AC50 [7] | AC50 [8] | AC50 [9] | AC50 [10] | AC50 [11] |
| --- | --- | --- | --- | --- | --- | --- | --- | --- | --- | --- | --- | --- | --- |
| CCC[C@H](NC(=O)[C@@H]1[C@H]2CCC[C@H]2CN1C(=O)[C@@H](NC(=O)[C@@H](NC(=O)c1cnccn1)C1CCCCC1)C(C)(C)C)C(=O)C(=O)NC1CC1 | > 10 µM | > 10 µM | > 10 µM | – | – | – | – | – | – | – | – | – | – |
| CC(=O)N[C@@H](CS)C(=O)O [ACETYLCYSTEINE] | – | – | > 30 µM | > 30 µM | > 30 µM | > 30 µM | > 30 µM | – | – | – | – | – | – |
| CN1CCC(=C2c3ccccc3CCc3cccnc32)CC1 [AZATADINE] | 8.64 µM | > 10 µM | > 10 µM | > 30 µM | – | > 10 µM | – | – | – | – | – | – | – |
| CC(C)COCC(CN(Cc1ccccc1)c1ccccc1)N1CCCC1 (stereo not drawn) [BEPRIDIL] | – | > 30 µM | – | – | > 10 µM | > 30 µM | > 30 µM | – | – | – | – | – | – |
| C/N=C(\NC)NCc1ccccc1 [BETHANIDINE] | – | – | > 30 µM | > 30 µM | > 30 µM | > 30 µM | > 30 µM | – | – | – | – | – | – |
| COCC1=C(C(=O)O)N2C(=O)[C@@H](NC(=O)/C(=N\OC)c3csc(N)n3)[C@H]2SC1 [CEFPODOXIME] | – | > 30 µM | > 30 µM | > 30 µM | > 30 µM | > 30 µM | > 30 µM | – | – | – | – | – | – |
| C[C@]12CCC(=O)C(O)=C1CC[C@@H]1[C@@H]2CC[C@]2(C)C(=O)CC[C@@H]12 [FORMESTANE] | – | > 30 µM | > 30 µM | > 30 µM | > 30 µM | > 30 µM | 3.7 µM | – | – | – | – | – | – |
| CC(C)NCC(O)c1ccc(O)c(O)c1 (stereo not drawn) [ISOPROTERENOL] | – | – | > 10 µM | – | > 10 µM | > 10 µM | > 30 µM | – | – | – | – | – | – |
| Oc1ccc2c(c1)CC[C@H](c1ccccc1)[C@@H]2c1ccc(OCCN2CCCC2)cc1 [LASOFOXIFENE] | – | – | > 30 µM | – | > 30 µM | – | > 30 µM | – | – | – | – | – | – |
| CN1CCN(C2=Nc3ccccc3Oc3ccc(Cl)cc32)CC1 [LOXAPINE] | – | 8.8 µM | > 10 µM | > 30 µM | > 10 µM | – | – | > 30 µM | 3.95 µM | > 30 µM | > 30 µM | > 30 µM | – |
| CC(C(=O)O)c1ccc(CC2CCCC2=O)cc1 (stereo not drawn) [LOXOPROFEN] | – | > 30 µM | > 30 µM | > 30 µM | > 30 µM | > 30 µM | > 30 µM | – | – | – | – | – | – |
| Cc1c(N(C)CS(=O)(=O)O)c(=O)n(-c2ccccc2)n1C [METAMIZOLE] | – | – | – | – | – | – | – | > 30 µM | > 30 µM | > 30 µM | > 30 µM | 3.66 µM | > 30 µM |
| CN1C(=O)/C(=N\NC(N)=S)c2ccccc21 [METHISAZONE] | – | – | – | – | – | – | – | > 30 µM | > 30 µM | > 30 µM | > 10 µM | > 30 µM | > 30 µM |
| COC(=O)c1ccc(O)cc1 [METHYLPARABEN] | – | – | – | – | – | – | – | > 30 µM | > 30 µM | > 30 µM | > 30 µM | > 1 µM | > 30 µM |
| O=[N+]([O-])c1ccc(O)c2ncccc12 [NITROXOLINE] | – | – | > 30 µM | > 30 µM | > 30 µM | > 30 µM | – | > 10 µM | > 30 µM | > 30 µM | > 30 µM | > 30 µM | > 30 µM |
| C#C[C@]1(OC(C)=O)CC[C@H]2[C@@H]3CCC4=C/C(=N/O)CC[C@@H]4[C@H]3CC[C@@]21CC [NORGESTIMATE] | – | > 30 µM | > 30 µM | > 30 µM | > 30 µM | > 30 µM | 0.02 µM | – | – | – | – | – | – |
| CCCc1nc(C(C)(C)O)c(C(=O)O)n1Cc1ccc(-c2ccccc2-c2nnn[nH]2)cc1 [OLMESARTAN] | – | – | – | – | – | – | – | > 30 µM | > 30 µM | > 30 µM | > 30 µM | > 30 µM | > 30 µM |
| NCC(CC(=O)O)c1ccccc1 (stereo not drawn) [PHENIBUT] | – | – | – | – | – | – | – | > 30 µM | > 30 µM | > 30 µM | > 30 µM | > 30 µM | > 30 µM |
| CC[C@@H]([C@H](C)O)n1ncn(-c2ccc(N3CCN(c4ccc(OC[C@@H]5CO[C@@](Cn6cncn6)(c6ccc(F)cc6F)C5)cc4)CC3)cc2)c1=O [POSACONAZOLE] | – | – | – | – | – | – | > 30 µM | > 30 µM | > 30 µM | > 30 µM | > 30 µM | > 30 µM | > 30 µM |
| Cc1ncc(COP(=O)(O)O)c(C=O)c1O [PYRIDOXAL PHOSPHATE ANHYDROUS] | – | – | – | – | – | – | – | > 30 µM | > 30 µM | 19.5 µM | 8.66 µM | 6.68 µM | > 30 µM |
| COc1ccc(CN(CCN(C)C)c2ccccn2)cc1 [PYRILAMINE] | – | – | – | – | – | – | – | > 30 µM | 26.4 µM | > 30 µM | > 30 µM | > 30 µM | 8.61 µM |
| c1ccc2c(c1)CCc1ccccc1N2C1CN2CCC1CC2 (stereo not drawn) [QUINUPRAMINE] | – | – | – | – | – | – | – | > 30 µM | 23.3 µM | > 30 µM | > 30 µM | > 30 µM | 0.0329 µM |
| CNCc1ccc(-c2[nH]c3cc(F)cc4c3c2CCNC4=O)cc1 [RUCAPARIB] | 12.3 µM | > 30 µM | – | – | – | – | 15.6 µM | – | – | – | – | – | – |
| C[C@H](Cc1cc2c(c(C(N)=O)c1)N(CCCO)CC2)NCCOc1ccccc1OCC(F)(F)F [SILODOSIN] | – | – | – | – | – | – | – | > 30 µM | 0.003 µM | > 30 µM | > 30 µM | 15 µM | > 30 µM |
| CC1=CCC(C(C)(C)O)CC1O (stereo not drawn) [SOBREROL] | – | – | – | – | – | – | – | > 30 µM | > 30 µM | > 30 µM | > 30 µM | > 30 µM | > 30 µM |
| CCOC(=O)N1CSC[C@H]1C(=O)O [TELMESTEINE] | – | – | – | – | – | – | – | > 30 µM | > 30 µM | > 30 µM | > 30 µM | > 30 µM | > 30 µM |
